Data on two compounds can be found in article PMC6152416, “Pharmacological and Toxicological Screening of Novel Benzimidazole-Morpholine Derivatives as Dual-Acting Inhibitors” (Molecules : A Journal of Synthetic Chemistry and Natural …, 2017).

The structures appear in SMILES notation.

The target of the first test is T1, COX-1 (Ovis aries, UniProt P05979).
T1 construct: purchased BioVision (Milpitas, CA, USA) K548-100
T1 sequence (P05979 25-600): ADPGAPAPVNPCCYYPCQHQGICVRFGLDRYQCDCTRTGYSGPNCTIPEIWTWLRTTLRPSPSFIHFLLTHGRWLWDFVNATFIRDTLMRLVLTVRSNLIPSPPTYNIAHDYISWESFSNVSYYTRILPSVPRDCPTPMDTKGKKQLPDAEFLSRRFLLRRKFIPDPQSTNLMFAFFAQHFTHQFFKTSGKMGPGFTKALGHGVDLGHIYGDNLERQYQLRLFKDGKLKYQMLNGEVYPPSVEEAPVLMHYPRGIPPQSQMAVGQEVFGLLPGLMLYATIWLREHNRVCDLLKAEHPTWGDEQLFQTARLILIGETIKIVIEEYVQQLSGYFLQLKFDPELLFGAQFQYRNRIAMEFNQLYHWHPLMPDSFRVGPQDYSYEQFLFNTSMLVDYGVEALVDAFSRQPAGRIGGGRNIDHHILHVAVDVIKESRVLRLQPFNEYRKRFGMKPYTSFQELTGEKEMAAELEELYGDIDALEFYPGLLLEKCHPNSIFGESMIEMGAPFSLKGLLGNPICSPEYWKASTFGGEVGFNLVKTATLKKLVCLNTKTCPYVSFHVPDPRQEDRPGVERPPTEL
In words: Fluorimetric COX-1 inhibition screening kit (BioVision). Particulars: 10^-3 M. Type of test: biochemical. On the procedure: (§1) Inhibitory potency of the compounds on COX-1 and COX-2 enzymes was determined by using fluorimetric COX-1 and COX-2 inhibition screening kits from BioVision (Milpitas, CA, USA). The experimental protocol as described in the guides provided by the supplier was followed. All of the pipetting were performed using a robotized system to increase speed, accuracy and precision. Fluorescence intensities of the samples were kinetically measured at 25 °C for 5–10 min by monitoring emissions at 587 nm after excitation at 535 nm. Two appropriate points (T1 and T2) in the linear range of the plot were chosen and the corresponding fluorescence values (RFU1 and RFU2) were obtained. The slope for all samples including Enzyme Control (EC) was calculated by dividing the net ΔRFU (RFU2 − RFU1) values by the time ΔT (T2 − T1). Percentage of relative inhibition was calculated by using the following equation:% Relative inhibition = (Slope of EC − Slope of S/Slope of EC) × 100 where S is the term representing the tested compound [51, 52]. […] The IC50 values were calculated using the plots of the enzyme activity against concentrations by applying regression analyses.
As for `Fc1ccc(-c2nc3ccccc3n2CCN2CCOCC2)cc1` [Compound 2d, 2-(4-Fluorophenyl)-1-[2-(morpholin-4-yl)ethyl]-1H-benzimidazole], the “COX-1 Inhibition (%)” value is recorded as 31.87%.
Regarding `Brc1ccc(-c2nc3ccccc3n2CCN2CCOCC2)cc1` [Compound 2g, 2-(4-Bromophenyl)-1-[2-(morpholin-4-yl)ethyl]-1H-benzimidazole], the “COX-1 Inhibition (%)” value turned out to be 29.47%.

The test is the same for the next values; noted with them: 10^-4 M.
Regarding `Fc1ccc(-c2nc3ccccc3n2CCN2CCOCC2)cc1` [Compound 2d, 2-(4-Fluorophenyl)-1-[2-(morpholin-4-yl)ethyl]-1H-benzimidazole], the “COX-1 Inhibition (%)” value turned out to be 29.36%.
Consider `Brc1ccc(-c2nc3ccccc3n2CCN2CCOCC2)cc1` [Compound 2g, 2-(4-Bromophenyl)-1-[2-(morpholin-4-yl)ethyl]-1H-benzimidazole], for which the “COX-1 Inhibition (%)” value came out at 21.74%.

A further test has as its target T2, human recombinant MAO-B (Homo sapiens, UniProt P27338).
T2 sequence (P27338 1-520): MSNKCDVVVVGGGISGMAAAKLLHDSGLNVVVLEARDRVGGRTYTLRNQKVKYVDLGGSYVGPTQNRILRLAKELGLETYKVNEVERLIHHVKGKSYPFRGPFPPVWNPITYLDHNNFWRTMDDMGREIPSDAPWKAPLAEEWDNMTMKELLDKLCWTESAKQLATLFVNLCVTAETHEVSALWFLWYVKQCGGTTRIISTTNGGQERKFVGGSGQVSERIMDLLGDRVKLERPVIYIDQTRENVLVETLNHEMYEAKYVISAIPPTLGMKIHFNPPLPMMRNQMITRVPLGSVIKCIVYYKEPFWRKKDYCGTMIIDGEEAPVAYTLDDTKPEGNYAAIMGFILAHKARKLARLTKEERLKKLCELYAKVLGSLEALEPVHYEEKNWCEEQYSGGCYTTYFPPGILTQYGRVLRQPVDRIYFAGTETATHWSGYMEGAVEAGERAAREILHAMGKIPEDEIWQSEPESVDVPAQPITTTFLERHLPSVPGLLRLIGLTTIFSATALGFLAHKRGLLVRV
In words: MAO inhibition assay (kynuramine, fluorimetric). Type of test: biochemical. The conditions noted are these: 10^-3 M. As for the experimental part: (§2) Enzyme activity assays were performed according to the procedure reported by Matsumoto et al. with slight modifications. In order to prevent the destructive effect of light on MAO enzymes, the assays were performed in 96-well black plates. Phosphate buffer solution (0.1 M, pH = 7.4) was used for preparation of stock solutions (5 mg/mL) of both human recombinant MAO-A and MAO-B enzymes. […] The addition of the test compound solution was followed by addition of either MAO-A or MAO-B enzyme (50 μL/well) solutions. After 10 min of incubation at 37 °C, kynuramine (50 μL/well) was added and enzyme-substrate reaction was initiated. The plate was incubated for 20 min at 37 °C and then reaction was terminated by addition of 2 N NaOH (75 μL/well). The fluorimetric reads from the top was performed at 310 nm excitation and 380 nm emission wavelengths.
For the compound `Fc1ccc(-c2nc3ccccc3n2CCN2CCOCC2)cc1` [Compound 2d, 2-(4-Fluorophenyl)-1-[2-(morpholin-4-yl)ethyl]-1H-benzimidazole], the “MAO-B Inhibition (%)” value amounted to 45.29%.
Same read-out and setting: in the case of `Brc1ccc(-c2nc3ccccc3n2CCN2CCOCC2)cc1` [Compound 2g, 2-(4-Bromophenyl)-1-[2-(morpholin-4-yl)ethyl]-1H-benzimidazole] it was 38.63%.

Still in this test, the particulars now being: 10^-4 M.
Take `Fc1ccc(-c2nc3ccccc3n2CCN2CCOCC2)cc1` [Compound 2d, 2-(4-Fluorophenyl)-1-[2-(morpholin-4-yl)ethyl]-1H-benzimidazole]: the “MAO-B Inhibition (%)” value was determined as 38.96%.
As for `Brc1ccc(-c2nc3ccccc3n2CCN2CCOCC2)cc1` [Compound 2g, 2-(4-Bromophenyl)-1-[2-(morpholin-4-yl)ethyl]-1H-benzimidazole], the “MAO-B Inhibition (%)” value was 30.87%.

The next test concerns the target T3, human recombinant MAO-A (Homo sapiens, UniProt P21397).
T3 sequence (P21397 1-527): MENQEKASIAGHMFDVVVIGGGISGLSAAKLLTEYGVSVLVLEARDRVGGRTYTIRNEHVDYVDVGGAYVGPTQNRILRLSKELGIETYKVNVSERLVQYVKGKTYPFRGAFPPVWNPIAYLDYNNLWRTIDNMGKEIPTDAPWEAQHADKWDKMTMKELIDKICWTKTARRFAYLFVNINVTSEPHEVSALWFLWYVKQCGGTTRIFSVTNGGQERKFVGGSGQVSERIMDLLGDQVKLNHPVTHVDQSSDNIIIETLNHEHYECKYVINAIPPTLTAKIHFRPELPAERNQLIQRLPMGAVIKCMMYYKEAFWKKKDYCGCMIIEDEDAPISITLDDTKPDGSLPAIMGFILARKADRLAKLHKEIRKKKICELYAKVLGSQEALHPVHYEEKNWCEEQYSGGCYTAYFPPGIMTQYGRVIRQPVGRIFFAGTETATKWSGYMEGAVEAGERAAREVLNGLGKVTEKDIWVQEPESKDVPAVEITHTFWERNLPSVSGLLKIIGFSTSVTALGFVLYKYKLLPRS
The experiment in a line: MAO inhibition assay (kynuramine, fluorimetric). The conditions noted are these: 10^-3 M. In kind it is biochemical. On the procedure: as §2
With `Fc1ccc(-c2nc3ccccc3n2CCN2CCOCC2)cc1` [Compound 2d, 2-(4-Fluorophenyl)-1-[2-(morpholin-4-yl)ethyl]-1H-benzimidazole], the “MAO-A Inhibition (%)” value was 39.79%.
For the compound `Brc1ccc(-c2nc3ccccc3n2CCN2CCOCC2)cc1` [Compound 2g, 2-(4-Bromophenyl)-1-[2-(morpholin-4-yl)ethyl]-1H-benzimidazole], the “MAO-A Inhibition (%)” value is reported as 30.85%.

Staying with this test, now noted: 10^-4 M.
With `Fc1ccc(-c2nc3ccccc3n2CCN2CCOCC2)cc1` [Compound 2d, 2-(4-Fluorophenyl)-1-[2-(morpholin-4-yl)ethyl]-1H-benzimidazole], the “MAO-A Inhibition (%)” value amounted to 33.11%.
Regarding `Brc1ccc(-c2nc3ccccc3n2CCN2CCOCC2)cc1` [Compound 2g, 2-(4-Bromophenyl)-1-[2-(morpholin-4-yl)ethyl]-1H-benzimidazole], the “MAO-A Inhibition (%)” value is listed as 22.29%.

For a further test, the target named is T4, COX-2 (Homo sapiens, UniProt P35354).
T4 construct: purchased BioVision (Milpitas, CA, USA) K547-100
T4 sequence (P35354 18-604): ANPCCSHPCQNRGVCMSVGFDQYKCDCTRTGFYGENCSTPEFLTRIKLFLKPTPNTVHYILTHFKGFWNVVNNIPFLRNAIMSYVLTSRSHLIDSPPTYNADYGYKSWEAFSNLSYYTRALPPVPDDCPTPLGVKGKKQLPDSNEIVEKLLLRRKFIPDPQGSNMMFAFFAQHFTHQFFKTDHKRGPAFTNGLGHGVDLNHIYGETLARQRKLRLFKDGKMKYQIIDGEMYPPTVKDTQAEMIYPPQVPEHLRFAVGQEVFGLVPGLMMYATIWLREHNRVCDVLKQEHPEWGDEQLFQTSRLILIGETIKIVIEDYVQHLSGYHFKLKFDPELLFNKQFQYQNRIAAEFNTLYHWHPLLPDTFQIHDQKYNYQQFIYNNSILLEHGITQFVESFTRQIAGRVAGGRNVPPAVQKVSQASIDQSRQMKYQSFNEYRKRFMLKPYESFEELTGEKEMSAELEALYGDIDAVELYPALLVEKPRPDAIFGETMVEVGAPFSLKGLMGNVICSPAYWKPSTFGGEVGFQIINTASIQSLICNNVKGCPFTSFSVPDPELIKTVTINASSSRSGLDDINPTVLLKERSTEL
In words: Fluorimetric COX-2 inhibition screening kit (BioVision). Type of test: biochemical. The conditions noted are these: 10^-3 M. As for the experimental part:
as §1
On to `Fc1ccc(-c2nc3ccccc3n2CCN2CCOCC2)cc1` [Compound 2d, 2-(4-Fluorophenyl)-1-[2-(morpholin-4-yl)ethyl]-1H-benzimidazole], for which the “COX-2 Inhibition (%)” value was 21.08%.
Same read-out and setting: under `Brc1ccc(-c2nc3ccccc3n2CCN2CCOCC2)cc1` [Compound 2g, 2-(4-Bromophenyl)-1-[2-(morpholin-4-yl)ethyl]-1H-benzimidazole] stands 16.30%.

Still in this test, the particulars now being: 10^-4 M.
In the case of `Fc1ccc(-c2nc3ccccc3n2CCN2CCOCC2)cc1` [Compound 2d, 2-(4-Fluorophenyl)-1-[2-(morpholin-4-yl)ethyl]-1H-benzimidazole], the “COX-2 Inhibition (%)” value was 28.46%.
Turning to `Brc1ccc(-c2nc3ccccc3n2CCN2CCOCC2)cc1` [Compound 2g, 2-(4-Bromophenyl)-1-[2-(morpholin-4-yl)ethyl]-1H-benzimidazole], the “COX-2 Inhibition (%)” value is 19.03%.

The target of a further test is AChE (Homo sapiens, UniProt P22303).
Chain of AChE (P22303 32-614): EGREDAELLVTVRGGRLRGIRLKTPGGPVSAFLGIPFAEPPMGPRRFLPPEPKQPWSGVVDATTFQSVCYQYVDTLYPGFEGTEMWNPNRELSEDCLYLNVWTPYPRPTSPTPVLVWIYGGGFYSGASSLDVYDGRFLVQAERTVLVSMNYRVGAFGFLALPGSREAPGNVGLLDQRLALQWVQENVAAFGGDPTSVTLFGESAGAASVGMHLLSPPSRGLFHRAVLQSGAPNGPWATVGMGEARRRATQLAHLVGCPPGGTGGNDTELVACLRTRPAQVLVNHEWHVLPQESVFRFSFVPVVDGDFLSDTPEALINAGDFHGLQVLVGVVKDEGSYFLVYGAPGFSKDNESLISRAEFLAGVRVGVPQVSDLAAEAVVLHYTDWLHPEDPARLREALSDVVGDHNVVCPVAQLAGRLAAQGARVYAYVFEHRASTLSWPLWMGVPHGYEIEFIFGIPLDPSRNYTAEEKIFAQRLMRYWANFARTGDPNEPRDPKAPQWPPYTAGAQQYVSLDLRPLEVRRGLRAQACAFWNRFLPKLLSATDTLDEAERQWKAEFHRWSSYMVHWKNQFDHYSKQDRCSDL
Assay: not given
Type of test: biochemical. Particulars: 10^-3 M. On the procedure: Inhibition potency of the test compounds against AChE was determined using Ellman’s method. Enzyme solutions were prepared in gelatin solution (1%, w/v), at the concentration of 2.5 units/mL. […] AChE solution (20 µL/well) and test solution (20 µL/well) were added to phosphate buffer solution (140 µL/well, pH 8.0 ± 0.1), and incubated at 25 °C for 5 min. […] The production of the yellow anion was recorded by multimode microplate reader for 10 min at 412 nm. As a control, an identical solution of the enzyme without the inhibitor was processed. The control and the inhibitor readings were corrected with blank-readings. All processes were assayed in four independent determinations.
Take `Fc1ccc(-c2nc3ccccc3n2CCN2CCOCC2)cc1` [Compound 2d, 2-(4-Fluorophenyl)-1-[2-(morpholin-4-yl)ethyl]-1H-benzimidazole]: the “AChE Inhibition (%)” value was 16.20%.
As to `Brc1ccc(-c2nc3ccccc3n2CCN2CCOCC2)cc1` [Compound 2g, 2-(4-Bromophenyl)-1-[2-(morpholin-4-yl)ethyl]-1H-benzimidazole], the “AChE Inhibition (%)” value was determined as 13.04%.

The test is the same for the next values; noted with them: 10^-4 M.
With `Fc1ccc(-c2nc3ccccc3n2CCN2CCOCC2)cc1` [Compound 2d, 2-(4-Fluorophenyl)-1-[2-(morpholin-4-yl)ethyl]-1H-benzimidazole], the “AChE Inhibition (%)” value was 16.20%.
Take `Brc1ccc(-c2nc3ccccc3n2CCN2CCOCC2)cc1` [Compound 2g, 2-(4-Bromophenyl)-1-[2-(morpholin-4-yl)ethyl]-1H-benzimidazole]: the “AChE Inhibition (%)” value is on record as 13.04%.
